In brackets after ≈: the same amount, converted by molar mass.
Assay: Approximate solubility of Sample 4 by solvent aliquot addition, visual inspection; post-solubility storage
Assay type: physicochemical
Conditions: for solubility: thermodynamic from solid
Procedure: Weighed samples of MRZ, Sample 4 were treated with aliquots of the test solvents or solvent mixtures at ambient temperature. Complete dissolution of the test material was determined by visual inspection. Solubility was estimated based on the total solvent volume used to provide complete dissolution. The actual solubility may be greater than the value calculated because of the use of solvent aliquots that were too large or due to a slow rate of dissolution. If complete dissolution was not achieved during the experiment, the solubility is expressed as “less than”. If complete dissolution was achieved by only one aliquot addition, the value is reported as “larger than”. As set forth in Table-9, the ratio of solvent mixtures are given by volume. Solubilities are estimated at ambient temperature and reported to the nearest mg/mL; if complete dissolution was not achieved, the value is reported as “<”; the actual solubility may be greater than the reported value due to the use of solvent aliquots that were too large or due to a slow rate of dissolution. Post-solubility samples were stored at 2-8° C. for 15-16 days followed by 1 day at ambient storage before visual inspection for precipitation. Post-solubility samples were visually inspected after 2-3 days of ambient storage. Formation system A is: 55% propylene glycol+5% ethanol+40% citrate buffer (10 mM; pH 5). Formation system B is: 14/86 (v/v) H2O/tert-butyl alcohol containing 30 mg/mL sucrose, and titrated with HCl to pH 3.2±0.2.

C[C@@]12OC(=O)[C@]1([C@@H](O)[C@@H]1C=CCCC1)NC(=O)[C@@H]2CCCl [Sample 4, marizomib]
solubility (aqueous with cosolvent or surfactant or cyclodextrin, Formulation System A (55% propylene glycol + 5% EtOH + 40% citrate buffer 10 mM pH 5), ambient temperature): < 1 mg/mL | solubility (aqueous with cosolvent or surfactant or cyclodextrin, Formulation System B (14/86 v/v H2O/tBA, 30 mg/ml sucrose, pH 3.2), ambient temperature): 6 mg/mL (≈ 19.1 mM) | solubility (organic solvent or mixture, 1-propanol, ambient temperature): 2 mg/mL (≈ 6.37 mM) | solubility (organic solvent or mixture, 2,2,2-trifluoroethanol, ambient temperature): < 1 mg/mL | solubility (organic solvent or mixture, 2-Me THF, ambient temperature): 32 mg/mL (≈ 102 mM) | solubility (organic solvent or mixture, 20:80 2-MeTHF/MeOAc (v/v), ambient temperature): 34 mg/mL (≈ 108 mM) | solubility (organic solvent or mixture, 20:80 CHCl3/DCM (v/v), ambient temperature): 3 mg/mL (≈ 9.56 mM) | solubility (organic solvent or mixture, 20:80 MEK/IPA (v/v), ambient temperature): 10 mg/mL (≈ 31.9 mM) | solubility (organic solvent or mixture, 20:80 MEK/MIBK (v/v), ambient temperature): 12 mg/mL (≈ 38.2 mM) | solubility (organic solvent or mixture, 20:80 NMP/1-propanol (v/v), ambient temperature): 19 mg/mL (≈ 60.6 mM) | solubility (organic solvent or mixture, 20:80 NMP/IPA (v/v), ambient temperature): 19 mg/mL (≈ 60.6 mM) | solubility (organic solvent or mixture, 20:80 THF/nitromethane (v/v), ambient temperature): 15 mg/mL (≈ 47.8 mM) | solubility (organic solvent or mixture, 25:75 ACN/MTBE (v/v), ambient temperature): 10 mg/mL (≈ 31.9 mM) | solubility (organic solvent or mixture, 25:75 DMF/anisole (v/v), ambient temperature): 17 mg/mL (≈ 54.2 mM) | solubility (organic solvent or mixture, 50:50 EtOAc/cyclohexane (v/v), ambient temperature): 4 mg/mL (≈ 12.7 mM) | solubility (organic solvent or mixture, 50:50 EtOAc/isooctane (v/v), ambient temperature): 2 mg/mL (≈ 6.37 mM) | solubility (organic solvent or mixture, 50:50 MeOH/Et2O (v/v), ambient temperature): 21 mg/mL (≈ 66.9 mM) | solubility (organic solvent or mixture, 50:50 THF/hexanes (v/v), ambient temperature): 21 mg/mL (≈ 66.9 mM) | solubility (organic solvent or mixture, 50:50 acetone/heptane (v/v), ambient temperature): 12 mg/mL (≈ 38.2 mM) | solubility (organic solvent or mixture, 50:50 acetone/iso-octane (v/v), ambient temperature): 12 mg/mL (≈ 38.2 mM) | solubility (organic solvent or mixture, ACN, ambient temperature): 10 mg/mL (≈ 31.9 mM) | solubility (organic solvent or mixture, CHCl3, ambient temperature): 2 mg/mL (≈ 6.37 mM) | solubility (organic solvent or mixture, DCM, ambient temperature): 2 mg/mL (≈ 6.37 mM) | solubility (organic solvent or mixture, DMSO, ambient temperature): > 83 mg/mL | solubility (organic solvent or mixture, EtOAc, ambient temperature): 15 mg/mL (≈ 47.8 mM) | solubility (organic solvent or mixture, Formic acid, ambient temperature): 15 mg/mL (≈ 47.8 mM) | solubility (organic solvent or mixture, IPA, ambient temperature): 6 mg/mL (≈ 19.1 mM) | solubility (organic solvent or mixture, MEK, ambient temperature): 33 mg/mL (≈ 105 mM) | solubility (organic solvent or mixture, MIBK, ambient temperature): 11 mg/mL (≈ 35.1 mM) | solubility (organic solvent or mixture, MeOAc, ambient temperature): 20 mg/mL (≈ 63.7 mM) | solubility (organic solvent or mixture, NMP, ambient temperature): 5 mg/mL (≈ 15.9 mM) | solubility (organic solvent or mixture, THF, ambient temperature): 49 mg/mL (≈ 156 mM) | solubility (organic solvent or mixture, [EMIm][Cl], ambient temperature): < 2 mg/mL | solubility (organic solvent or mixture, [EMIm][NTF2], ambient temperature): 1 mg/mL (≈ 3.19 mM) | solubility (organic solvent or mixture, acetic acid, ambient temperature): 10 mg/mL (≈ 31.9 mM) | solubility (organic solvent or mixture, acetone, ambient temperature): 39 mg/mL (≈ 124 mM) | solubility (organic solvent or mixture, anisole, ambient temperature): 2 mg/mL (≈ 6.37 mM) | solubility (organic solvent or mixture, cyclohexanone, ambient temperature): 22 mg/mL (≈ 70.1 mM) | solubility (organic solvent or mixture, dioxane, ambient temperature): 20 mg/mL (≈ 63.7 mM) | solubility (organic solvent or mixture, nitromethane, ambient temperature): 2 mg/mL (≈ 6.37 mM) | solubility (organic solvent or mixture, pyridine, ambient temperature): 36 mg/mL (≈ 115 mM) | solubility (organic solvent or mixture, tert-butanol, ambient temperature): 3 mg/mL (≈ 9.56 mM) | Precipitates formed during storage? (post-solubility sample in 1-propanol): no | Precipitates formed during storage? (post-solubility sample in 2-Me THF): no | Precipitates formed during storage? (post-solubility sample in 20:80 2-MeTHF/MeOAc): no | Precipitates formed during storage? (post-solubility sample in 20:80 CHCl3/DCM): no | Precipitates formed during storage? (post-solubility sample in 20:80 MEK/IPA): no | Precipitates formed during storage? (post-solubility sample in 20:80 MEK/MIBK): no | Precipitates formed during storage? (post-solubility sample in 20:80 NMP/1-propanol): no | Precipitates formed during storage? (post-solubility sample in 20:80 NMP/IPA): no | Precipitates formed during storage? (post-solubility sample in 20:80 THF/nitromethane): no | Precipitates formed during storage? (post-solubility sample in 25:75 ACN/MTBE): no | Precipitates formed during storage? (post-solubility sample in 25:75 DMF/anisole): no | Precipitates formed during storage? (post-solubility sample in 50:50 EtOAc/cyclohexane): no | Precipitates formed during storage? (post-solubility sample in 50:50 EtOAc/isooctane): no | Precipitates formed during storage? (post-solubility sample in 50:50 MeOH/Et2O): no | Precipitates formed during storage? (post-solubility sample in 50:50 THF/hexanes): no | Precipitates formed during storage? (post-solubility sample in 50:50 acetone/heptane): no | Precipitates formed during storage? (post-solubility sample in 50:50 acetone/iso-octane): no | Precipitates formed during storage? (post-solubility sample in ACN): no | Precipitates formed during storage? (post-solubility sample in CHCl3): yes | Precipitates formed during storage? (post-solubility sample in DCM): no | Precipitates formed during storage? (post-solubility sample in DMSO): no | Precipitates formed during storage? (post-solubility sample in EtOAc): no | Precipitates formed during storage? (post-solubility sample in Formic acid): no | Precipitates formed during storage? (post-solubility sample in Formulation System B): no | Precipitates formed during storage? (post-solubility sample in IPA): no | Precipitates formed during storage? (post-solubility sample in MEK): yes (small amount) | Precipitates formed during storage? (post-solubility sample in MIBK): no | Precipitates formed during storage? (post-solubility sample in MeOAc): no | Precipitates formed during storage? (post-solubility sample in NMP): no | Precipitates formed during storage? (post-solubility sample in THF): no | Precipitates formed during storage? (post-solubility sample in acetic acid): no | Precipitates formed during storage? (post-solubility sample in acetone): no | Precipitates formed during storage? (post-solubility sample in anisole): no | Precipitates formed during storage? (post-solubility sample in cyclohexanone): no | Precipitates formed during storage? (post-solubility sample in dioxane): no | Precipitates formed during storage? (post-solubility sample in nitromethane): no | Precipitates formed during storage? (post-solubility sample in pyridine): no | Precipitates formed during storage? (post-solubility sample in tert-butanol): no

Reference: patent publication US10703760B2, “Morphic forms of marizomib and uses thereof” (Celgene International II Sàrl, priority 2016, dated 2020)
